The values that follow come from paper PMC7615343, “Fluorination Influences the Bioisostery of Myo-Inositol Pyrophosphate Analogs” (Chemistry (Weinheim an der Bergstrasse, Germany), 2023).

In this test the target is T1, PPIP5K2^1-366 (human PPIP5K2 kinase domain) (Homo sapiens, UniProt O43314).
T1 construct: one comprised residues 1–366; made in house
T1 sequence (O43314 1-366): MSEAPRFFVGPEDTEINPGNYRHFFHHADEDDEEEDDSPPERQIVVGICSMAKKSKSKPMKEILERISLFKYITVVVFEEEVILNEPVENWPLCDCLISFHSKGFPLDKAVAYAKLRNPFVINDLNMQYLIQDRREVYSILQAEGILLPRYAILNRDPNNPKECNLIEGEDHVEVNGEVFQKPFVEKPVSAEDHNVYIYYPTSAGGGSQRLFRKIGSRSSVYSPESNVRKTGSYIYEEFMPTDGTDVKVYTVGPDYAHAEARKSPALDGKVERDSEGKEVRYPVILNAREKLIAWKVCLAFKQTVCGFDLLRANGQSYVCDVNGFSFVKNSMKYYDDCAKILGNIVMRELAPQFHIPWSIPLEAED
The test is described as follows: Isothermal titration calorimetry of ligand binding to PPIP5K2KD. The conditions noted are these: ITC, 25°C; for ΔH / ΔS: 7.5 μM PPIP5K2^1-366, 75 μM ligand, pH 7.2; for Kd: 7.5 μM PPIP5K2^1-366 in cell, 75 μM ligand in syringe, pH 7.2, 1mM AMP-PNP, 1mM MgCl2, read-out: Kd (apparent).
Excerpt: We next used isothermal titration calorimetry (ITC) to analyze the interactions of PPIP5K2^KD with 5PP-IP5 and each of the four analogs studied herein (Figure 5A-E). […] At the same time, the enthalpic gain for binding was largest for 5PCF2Am-IP5 and 5PA-IP5. A possible explanation may be that these two ligands are less strongly hydrated, due to their lower overall charge. The enthalpic cost for dehydration of 5PCF2Am-IP5 and 5PA-IP5 is therefore lower, compared to the other molecules, resulting in a higher enthalpic gain overall. A less strongly hydrated ligand will also release fewer water molecules upon binding, consistent with the lower entropic gains.
Figure 5 Analysis of ligand binding to the PPIP5K2^KD by ITC. Test solutions contained 7.5 μM of PPIP5K2^1-366 in the sample cell and 75 μM ligand in the syringe. Other details are provided in the Methods Section. Representative thermograms (1 of 3 replicates) are shown for titration of either (A) 5PP-IP5; (B) 5PCPF2P-IP5; (C) 5PCP-IP5; (D) 5PCF2Am-IP5; (E) 5PA-IP5. (F) Corresponding thermodynamic data. TEXT PRINTED IN THE PICTURE: (F) 5PP-: Kd (nM): 123 ± 13; ΔH (kJ/mol): -26 ± 2; ΔS (kJ/mol/deg): 0.046 ± 0.008 | (F) 5PCF2-: Kd (nM): 246 ± 10; ΔH (kJ/mol): -16 ± 1; ΔS (kJ/mol/deg): 0.072 ± 0.005 | (F) 5PCP-: Kd (nM): 100 ± 10; ΔH (kJ/mol): -20 ± 2; ΔS (kJ/mol/deg): 0.067 ± 0.016 | (F) 5PCF2-Am-: Kd (nM): 90 ± 13; ΔH (kJ/mol): -38 ± 2; ΔS (kJ/mol/deg): 0.007 ± 0.004 | (F) 5PA-: Kd (nM): 90 ± 7; ΔH (kJ/mol): -36 ± 3; ΔS (kJ/mol/deg): 0.013 ± 0.008 […]
(§1) Calorimetry experiments were performed using a MicroCal PEAQ-ITC (Malvern Panalytical) with 7.5 μM recombinant PPIP5K21-366 in the sample cell and 75 μM of ligand in the syringe, each of which was maintained at 25°C in buffer containing 20 mM HEPES, pH 7.2, 150 mM KCl, 0.05 mM EDTA, 1mM AMP-PNP, 1mM MgCl2 as indicated. The sample cell (volume = 204 μL) and the syringe were cleaned before each run. Thermograms were constructed from 13 injections, each of which involved 3 μL of ligand delivered for 6 s, with an equilibration time of 150-300 s between each injection. The stirring speed was set to 750 rpm. Data were fitted to a single binding site model using the analysis software provided by the manufacturer. At least three runs were performed for each condition.
Protein expression and purification.
Throughout the main text, PPIP5K2KD is deployed as an abbreviation for the human PPIP5K2 kinase domain. However, two different constructs were utilized, as described in the figure legends and within the Methods section below: one comprised residues 1–366 (PPIP5K21-366) and the other comprised residues 41–366 (PPIP5K241-366). Both constructs were expressed and purified as described previously.[6] The human DIPP1 construct (residues 1-148) was expressed and purified as described in [7]. […]
The molecular graphics representations wer e prepared with the program PyMol (Schrödinger, LLC). Atomic coordinates an d structure factors have been deposited with the Protein Data Bank with accession codes 8G9C, 8G9D, 8G9E.
PPIP5K2KD reverse kinase assay […]
Isothermal titration calorimetry
as §1, with “PPIP5K21–366” for “PPIP5K21-366”, “2 04 µL)” for “204 μL)”, “µL” for “μL”, “150 -300” for “150-300”, “cond ition. […]” for “condition.”
Background: ITC needs no label: the signal is the heat of the interaction.

For `O=P(O)(O)CP(=O)(O)O[C@H]1[C@H](OP(=O)(O)O)[C@@H](OP(=O)(O)O)[C@@H](OP(=O)(O)O)[C@@H](OP(=O)(O)O)[C@@H]1OP(=O)(O)O` [5PCP-IP5], the ΔH is -4.78 ± 0.48 kcal/mol, the ΔS is listed as 0.067 ± 0.016 kJ/mol/deg and the Kd came out at 100 ± 10 nM.
Consider `O=P(O)(O)O[C@H]1[C@@H](OP(=O)(O)O)[C@H](OP(=O)(O)O)[C@@H](OP(=O)(O)C(F)(F)P(=O)(O)O)[C@H](OP(=O)(O)O)[C@H]1OP(=O)(O)O` [5PCF2P-IP5], for which the ΔH is -3.82 ± 0.24 kcal/mol, the ΔS stood at 0.072 ± 0.005 kJ/mol/deg and the Kd is 246 nM.
